Molecular target: T1, SaCas9 (Staphylococcus aureus, UniProt J7RUA5)
T1 sequence (J7RUA5 1-1053): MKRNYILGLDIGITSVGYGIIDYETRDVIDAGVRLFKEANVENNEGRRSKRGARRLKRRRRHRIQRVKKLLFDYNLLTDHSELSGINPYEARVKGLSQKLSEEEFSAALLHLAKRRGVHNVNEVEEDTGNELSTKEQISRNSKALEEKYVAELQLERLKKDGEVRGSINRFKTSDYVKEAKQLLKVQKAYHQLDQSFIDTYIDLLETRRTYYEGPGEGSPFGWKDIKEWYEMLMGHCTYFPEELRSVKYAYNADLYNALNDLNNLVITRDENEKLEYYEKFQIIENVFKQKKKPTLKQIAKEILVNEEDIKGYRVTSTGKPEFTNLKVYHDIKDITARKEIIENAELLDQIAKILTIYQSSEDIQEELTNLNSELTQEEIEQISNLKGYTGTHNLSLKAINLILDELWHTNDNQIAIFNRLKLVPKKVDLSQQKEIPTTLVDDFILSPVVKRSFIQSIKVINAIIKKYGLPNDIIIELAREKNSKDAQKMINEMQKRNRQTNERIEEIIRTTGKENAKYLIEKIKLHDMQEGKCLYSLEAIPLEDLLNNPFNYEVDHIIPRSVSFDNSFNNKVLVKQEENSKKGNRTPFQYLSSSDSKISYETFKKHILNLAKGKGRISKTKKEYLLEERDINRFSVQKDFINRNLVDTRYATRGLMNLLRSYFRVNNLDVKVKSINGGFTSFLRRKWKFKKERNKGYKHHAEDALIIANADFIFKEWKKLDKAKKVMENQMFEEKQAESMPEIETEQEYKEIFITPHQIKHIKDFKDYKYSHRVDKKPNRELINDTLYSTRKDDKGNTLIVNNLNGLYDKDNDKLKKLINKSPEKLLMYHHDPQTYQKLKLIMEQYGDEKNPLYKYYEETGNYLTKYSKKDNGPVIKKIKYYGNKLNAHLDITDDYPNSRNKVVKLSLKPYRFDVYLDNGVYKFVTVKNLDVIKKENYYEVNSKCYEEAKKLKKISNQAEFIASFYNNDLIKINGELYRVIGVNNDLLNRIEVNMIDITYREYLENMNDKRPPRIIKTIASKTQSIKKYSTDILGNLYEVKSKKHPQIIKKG
Test: Strand displacement assay, SaCas9 primary screen
Assay type: biochemical
Conditions: for Auto Zscore Rep 1 / Auto Zscore Rep 2 / Normalized Zscore Rep 1 / Normalized Zscore Rep 2: SaCas9 primary screen; for Auto Zscore Rep 1 / Normalized Zscore Rep 1: replicate 1; for Auto Zscore Rep 2 / Normalized Zscore Rep 2: replicate 2; for Normalized Zscore Rep 1 / Normalized Zscore Rep 2: weaker potential hits; for 3 sigma Hit: flag 1 = hit at 3 sigma; for 5 sigma Hit: flag 1 = hit at 5 sigma
Experimental: An overview of the screening for SaCas9 inhibitors is depicted in FIG. 14. A total of 43,168 Compounds were screened from the ICCB Libraries. Libraries screened for the initial compounds include ChemDiv 7 (34,848 cpds), Enamine 1 (5,280 cpds), ChemDiv1 (1,760 cpds), NIH Clinical Collection (450 cpds), Biomol 4—FDA Approved Library (640 cpds). A hit is determined from the Zscore, with 3-5σ being a weak hit, >5σ being a strong hit. The results of the hits include 193 Weak Hits and 249 Strong Hits. The NIH Clinical Collection 1-2014 was screened for 450 of 450 compounds, with 7 hits—1.5%. The Biomol 4—FDA Approved Library was screened for 640 of 640 compounds, with 8 hits—1.2%. […] Enamine 1 was screened for 5,280 of 6,004 compounds, with 44 hits—0.83%. Libraries are commercially available, with reference numbers utilized for compounds identifying the compound structures used. […]
Generalization of CAA to other Cas nucleases. Applicants sought to generalize CAA to other CRISPR-associated nucleases, including from Staphylococcus aureus (SaCas9). Given the similarities between SaCas9 and SpCas9 modes of DNA-substrate binding and protein folding,^26, 27 Applicants hypothesized that SaCas9-induced strand displacement could be similarly measured. Indeed, fluorescence quenching correlated with substrate cleavage in the CAA assay with active SaCas9:gRNA and an ACGGGT PAM sequence, which was validated with gel electrophoresis (FIG. 62F,G and FIG. 69F).
First, Applicants optimized various components and conditions of the strand displacement assay for Cas enzyme activity and generality with different Cas such as SpCas9 (FIG. 62B) or SaCas9 (FIG. 69F) or FnCas12a (FIG. 70A,B). Typically, SpCas9: gRNA (1:1.2 ratio) RNP was pre-formed at 1 μM in Cas9 assay buffer (20 mM Tris-HCl, pH=7.5, 100 mM KCl, 5 mM MgCl2) for 5 min at 4° C. before diluting to 10 nM in Cas9 assay buffer (2× final concentration). 25 μL of the Cas9 2× stock was manually dispensed to a black 384-well plate (Corning 3575) using electronic pipette. Apo SpCas9 (without guide RNA) was used at the same concentration as a control for no activity (mock inhibition). Following this, pre-annealed Alexa-Fluor 647 labeled substrate and quencher were also diluted to 1 nM and 5 nM in Cas9 assay buffer, respectively (2× stock solution). Next, 25 μL of the substrate/quencher solution was added manually to each well of the Cas9-containing 384-well plates using an electronic pipette and was incubated at 37° C. for 2.5 h. Fluorescent signals were read with the microplate reader set to read Alexa-Fluor 647 fluorescence. Assay was performed similarly with SaCas9 and FnCas12a using the respective enzyme, gRNA, substrate, and quencher oligos. Applicants similarly divulged the effect of PAM sequences of dsDNA on its assay specificity using TGG, TGC, AAC PAM containing substrates for SpCas9 (FIG. 62C), and ACGGGT, ACGGTT, TGCCCA PAM substrate for SaCas9 (FIG. 62F) and TTTC, TTGC, AAAG PAM substrates for FnCpf1 (FIG. 63B-C). Applicants also optimized the effective concentration of DS-AF647 and SS-AF647 fluorophores (FIG. 64A), DS-substrate to SpCas9 RNP ratio (FIG. 64B) and substrate to quencher ratio (FIG. 64C) on assay performance. Similarly, Applicants performed a time course experiment to establish the time required for maximum completion of the reaction at various substrate to SpCas9 RNP ratios (FIG. 64D).

Row | Auto Zscore Rep 1 | Auto Zscore Rep 2 | Normalized Zscore Rep 1 | Normalized Zscore Rep 2 | 3 sigma Hit | 5 sigma Hit | SMILES
1 | −0.9384 | 0.6834 | 0.1939 | 0.1646 | 1 | – | O=C(O)c1cc(NS(=O)(=O)c2cc(F)ccc2F)cnc1N1CCOCC1 [Cpd F293-0775]
2 | 0.8719 | 0.05327 | 0.2028 | 0.2126 | 1 | – | Cc1cc(-c2nnc3sc(COc4ccccc4Cl)nn23)[nH]n1 [Cpd D727-0910]
3 | 0.257 | 0.3998 | 0.4361 | 0.4132 | 1 | 1 | O=C1CC(NC(=O)c2ccc(Cl)cc2)C(=O)N1 (stereo not drawn) [Cpd T0513-4457]
4 | 1.126 | −0.9366 | 0.1436 | 0.1737 | 1 | – | Cc1ccc(C)n1CCN1CCN(S(=O)(=O)c2ccccc2)CC1 [Cpd T0510-3387]
5 | 0.05393 | −1.233 | 0.4933 | 0.4517 | 1 | 1 | Cc1cc(Nc2ccccc2)n(-c2ccccc2C(=O)O)n1 [Cpd T0513-3165]
6 | 1.379 | 1.343 | 0.1426 | 0.123 | 1 | – | O=C1c2cccc3cccc(c23)N1S(=O)(=O)c1cccs1 [Cpd T0503-3218]
7 | −0.203 | −0.05734 | 0.3533 | 0.2821 | 1 | 1 | Cc1n[nH]c2c1C(c1ccc(O)c(O)c1)CC(=O)N2 (stereo not drawn) [Cpd D361-0120]
8 | 0.4484 | 1.331 | 0.18 | 0.1781 | 1 | – | CCN(Cc1ccccc1)c1ncc(NS(=O)(=O)c2ccc(F)cc2)cc1C(=O)O [Cpd F293-0001]
9 | −0.5672 | 0.4148 | 0.2527 | 0.2772 | 1 | 1 | CCS(=O)(=O)Nc1cnc(N(C)CCCc2c(C)nn(C)c2C)c(C(=O)O)c1 [Cpd F293-0908]
10 | −0.2001 | 1.494 | 0.1692 | 0.1845 | 1 | – | CCN(Cc1ccccc1)c1ccc(NS(=O)(=O)c2cc(C)ccc2C)cc1C(=O)O [Cpd F294-0010]
11 | 0.8466 | −0.6764 | 0.2272 | 0.2685 | 1 | 1 | Fc1ccc(-c2nn3c(CSc4ccccc4)nnc3s2)cc1 [Cpd D727-0190]
12 | −1.668 | −0.1926 | 0.1601 | 0.1044 | 1 | 1 | Cn1c(=O)c2c(-c3ccccc3)n3c(c2n(C)c1=O)C(c1ccc(O)c(O)c1)Nc1ccccc1-3 (stereo not drawn) [Cpd D359-0009]
13 | −0.6224 | 1.036 | 0.1633 | 0.1771 | 1 | – | COCCc1nnc2n1N=C(c1ccc(Cl)cc1)CS2 [Cpd D727-0342]
14 | −0.413 | −1.287 | 0.4389 | 0.3581 | 1 | 1 | CCOc1ccc(NC(=O)c2oc3cc(C)ccc3c2C)c2cccnc12 [Cpd D656-0040]
15 | 1.744 | −0.999 | 0.1802 | 0.1627 | 1 | – | Cc1ccc(OCc2nn3c(-c4ccoc4C)nnc3s2)cc1C [Cpd D727-0113]
16 | −1.82 | −0.3926 | 0.4084 | 0.4043 | 1 | 1 | COc1ccc(-c2[nH]nc3nc(-c4ccc(O)c(O)c4)cc(C(=O)O)c23)cc1 [Cpd C202-1892]
17 | 1.316 | 1.188 | 0.2339 | 0.1885 | 1 | 1 | Cn1nc(-c2ccc(Cl)cc2)c2cc(C(=O)O)sc21 [Cpd C660-1021]
18 | 0.6685 | 0.2374 | 0.2133 | 0.2195 | 1 | 1 | Cc1noc2c1C(c1ccc(O)c(O)c1)C1=C(CC(c3ccc(O)cc3)CC1=O)N2 (stereo not drawn) [Cpd D588-0188]
19 | 1.668 | 0.9183 | 0.2707 | 0.1884 | 1 | 1 | CCN(Cc1ccccc1)c1ncc(NS(=O)(=O)c2ccccc2)cc1C(=O)O [Cpd F293-0004]
20 | 0.7951 | −0.08392 | 0.179 | 0.186 | 1 | – | CCCCN(CC)c1ncc(NS(=O)(=O)CC)cc1C(=O)O [Cpd F293-0526]
21 | 1.399 | 1.863 | 0.3305 | 0.3044 | 1 | 1 | O=C(O)c1cc(NS(=O)(=O)c2ccc3c(c2)CCCC3)cnc1N1CCCC1 [Cpd F293-0441]

Source: US20240115557A1, “INHIBITORS OF RNA-GUIDED NUCLEASES AND USES THEREOF” (The Brigham and Women's Hospital, Inc., priority 2022, published 2024)
